Here are results for 15 molecules from ChEMBL document CHEMBL3826886, “LpxC Inhibitors: Design, Synthesis, and Biological Evaluation of Oxazolidinones as Gram-negative Antibacterial Agents” (ACS Med Chem Lett, 2016).

pIC50: −log10 of the molar value. ≈ marks a conversion by molar mass, not a printed value. Calls of active or inactive are those of the source. A value given as a limit tells only on which side of the number the result lay.

Assay [1] has as its target T1, UDP-3-O-acyl-N-acetylglucosamine deacetylase (Escherichia coli K-12, UniProt P0A725).
T1 sequence (P0A725 whole entry): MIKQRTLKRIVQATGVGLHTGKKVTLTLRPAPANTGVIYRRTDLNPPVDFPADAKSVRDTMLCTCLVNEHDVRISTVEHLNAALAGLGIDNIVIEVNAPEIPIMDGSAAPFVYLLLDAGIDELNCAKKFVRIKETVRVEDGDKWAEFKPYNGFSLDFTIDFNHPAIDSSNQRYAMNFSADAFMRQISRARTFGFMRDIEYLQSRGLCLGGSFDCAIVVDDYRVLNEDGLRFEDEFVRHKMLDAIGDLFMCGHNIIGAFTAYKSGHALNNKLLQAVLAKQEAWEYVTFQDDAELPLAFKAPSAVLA
The assay can be described thus: Inhibition of Escherichia coli LpxC using UDP-3-O-(R-3-hydroxymyristoyl)GlcNAc as substrate measured after 60 mins by fluorescence analysis.

Assay [2] has as its system Escherichia coli. Description: Antibacterial activity against wild-type Escherichia coli TG1 after 16 to 20 hrs by agar dilution method. Type of assay: functional. Background: In agar dilution, organisms are placed on agar that contains the substance at set levels.
Assay [3] has as its system Escherichia coli. The assay can be described thus: Antibacterial activity against Escherichia coli KAM3 harboring acrB deletion mutant after 16 to 20 hrs by agar dilution method. It counts as functional.
Assay [4] has as its system Klebsiella pneumoniae. The assay can be described thus: Antibacterial activity against wild-type Klebsiella pneumoniae ATCC 13883 by agar dilution method. Type of assay: functional.
Assay [5] in a line: Ratio of MIC for wild-type Escherichia coli TG1 to MIC for Escherichia coli KAM3 acrB deletion mutant. Type of assay: functional.
For assay [6], the system named is Pseudomonas aeruginosa. Description: Antibacterial activity against Pseudomonas aeruginosa K799/61 measured after 16 to 20 hrs by agar dilution method. Type of assay: functional, organism-based.
For assay [7], the system named is Acinetobacter baumannii. The assay can be described thus: Antibacterial activity against Acinetobacter baumannii ATCC 19606 measured after 20 to 24 hrs by agar dilution method. Type of assay: functional.
The test system of assay [8] is Pseudomonas aeruginosa. Description: Antibacterial activity against wild type Pseudomonas aeruginosa K799 measured after 16 to 20 hrs by agar dilution method. It counts as functional, organism-based.
The test system of assay [9] is Pseudomonas aeruginosa. The assay can be described thus: Antibacterial activity against Pseudomonas aeruginosa PAO4009 measured after 16 to 20 hrs by agar dilution method. Type of assay: functional, organism-based.

In general, pIC50 refers to −log10 of the IC50, conventionally taken in molar units. Read a low pIC50 as a high IC50. For orientation: MIC means the smallest concentration in the dilution series that meets the test's criterion for growth inhibition. `O=C(NO)[C@@H]1CN(c2ccc(C#CC#CCCO)cc2)C(=O)O1`: the pIC50 in [1] was 6.85. In addition, the MIC in [2] came to 0.5 µg/mL (≈ 1.59 µM); in assay [3], 0.125 µg/mL (≈ 0.398 µM); in assay [4], 8 µg/mL (≈ 25.5 µM). Further, the Ratio in [5] amounted to 2.
`O=C(NO)[C@@H]1CN(c2ccc(C#Cc3ccc(CN4CCOCC4)cc3)cc2)C(=O)N1` gave a pIC50 in assay [1] of 6.15. For the same molecule, the minimum inhibitory concentration (MIC) in assay [2] was 8 µg/mL (≈ 19 µM); in assay [3], 0.5 µg/mL (≈ 1.19 µM); in assay [4] it was over 32 µg/mL.
`Nc1cc(N2C[C@@H](C(=O)NO)OC2=O)ccc1C#CC#CC1CC1` showed a pIC50 in assay [1] of 6.57. Also, the minimal inhibitory concentration (MIC) in [2] was found to be 0.25 µg/mL (≈ 0.768 µM); in assay [3] it was 0.063 µg/mL (≈ 0.194 µM); in [4], 2 µg/mL (≈ 6.15 µM). For the same molecule, in [5], the Ratio worked out at 2.
For `O=C(NO)[C@@H]1CN(c2ccc(C#CC#CC3CC3)cc2F)C(=O)O1`, the outcome in assay [6], in assay [7], in [8] and in assay [9] was inactive. Moreover, the negative logarithm of the IC50 (pIC50) in assay [1] is 6.70. Further, the values for the MIC in assay [2], in assay [3] and in assay [4] were 0.5 µg/mL (≈ 1.52 µM), 0.25 µg/mL (≈ 0.762 µM) and 4 µg/mL (≈ 12.2 µM), respectively. Besides, in [5], the Ratio was 2.
Turning to `O=C(NO)[C@H]1CN(c2ccc(C#Cc3ccc(CN4CCOCC4)cc3)cc2)C(=O)O1`, the pIC50 in [1] was 6.59. Further, the figures for the minimum inhibitory concentration (MIC) in [2], in [3] and in assay [4] were 1 µg/mL (≈ 2.37 µM), 0.13 µg/mL (≈ 0.308 µM) and 8 µg/mL (≈ 19 µM), respectively.
In turn, `O=C(NO)c1ccc(=O)n(-c2ccc(C#Cc3ccc(CN4CCOCC4)cc3)cc2)c1` gave a pIC50 in assay [1] of 6.00. Besides, the MIC amounted to 8 µg/mL (≈ 18.6 µM) in [2], 1 µg/mL (≈ 2.33 µM) in assay [3] and 64 µg/mL (≈ 149 µM) in assay [4].
For the molecule `O=C(NO)[C@@H]1CN(c2ccc(C#CC#CC3CC3)cc2)C(=O)O1`, the result in assay [6], in assay [7], in assay [8] and in [9] was inactive. The same molecule had a negative logarithm of the IC50 (pIC50) in assay [1] of 7.74. The minimum inhibitory concentration (MIC) in [2] stood at 0.063 µg/mL (≈ 0.203 µM); in assay [3], 0.016 µg/mL (≈ 0.0516 µM); in [4], 0.25 µg/mL (≈ 0.806 µM). In addition, the Ratio in [5] was determined as 2.
Take `O=C(NO)[C@@H]1CN(c2ccc(C#CC#CCCCO)cc2)C(=O)O1`: in assay [1], the pIC50 is 7.24. The minimum inhibitory concentration (MIC) in [2] was 0.125 µg/mL (≈ 0.381 µM); in assay [3], 0.031 µg/mL (≈ 0.0944 µM); in [4] it was 2 µg/mL (≈ 6.09 µM). The Ratio in [5] is 2.
As for `O=C(NO)[C@@H]1CN(c2ccc(C#Cc3ccc(CN4CCOCC4)cc3)cc2)C(=O)CO1`, the negative logarithm of the IC50 (pIC50) in assay [1] was 6.29. Also, the values for the MIC in [2], in [3] and in assay [4] were 2 µg/mL (≈ 4.59 µM), 0.25 µg/mL (≈ 0.574 µM) and 16 µg/mL (≈ 36.7 µM), respectively.
For the molecule `O=C(NO)[C@@H]1CN(c2ccc(C#CC#CC3CC3)c([N+](=O)[O-])c2)C(=O)O1`, in [1], the pIC50 was 7.57. The MIC in [2] turned out to be 0.125 µg/mL (≈ 0.352 µM); in assay [3] it was 0.31 µg/mL (≈ 0.872 µM); in assay [4] it was 1 µg/mL (≈ 2.81 µM). Further, the Ratio in assay [5] turned out to be 2.
Turning to `COc1cc(C#CC#CC2CC2)ccc1N1C[C@@H](C(=O)NO)OC1=O`, the pIC50 in assay [1] is 5.70. For the same molecule, the minimal inhibitory concentration (MIC) turned out to be 4 µg/mL (≈ 11.8 µM) in assay [2], 0.5 µg/mL (≈ 1.47 µM) in assay [3] and 32 µg/mL (≈ 94 µM) in assay [4]. Moreover, the Ratio in [5] stood at 2.
On the same counts, the results for `O=C(NO)[C@@H]1CN(c2ccc(C#CC#C[C@H]3C[C@@H]3CO)cc2)C(=O)O1` (mixture of isomers) are 7.70, 0.125 µg/mL, 0.016 µg/mL, 1 µg/mL and 2.
As for `C[C@@H](O)[C@H](NC(=O)c1ccc(C#Cc2ccc(CN3CCOCC3)cc2)cc1)C(=O)NO`, the values for the minimum inhibitory concentration (MIC) in assay [2], in [3] and in assay [4] were 0.13 µg/mL (≈ 0.297 µM), 0.01 µg/mL (≈ 0.0229 µM) and 0.25 µg/mL (≈ 0.571 µM), respectively.
On to `O=C(NO)[C@@H]1CN(c2ccc(C#Cc3ccc(CN4CCOCC4)cc3)cc2)C(=O)O1`, for which the result in assay [6], in [7], in [8] and in assay [9] was inactive. This molecule showed a pIC50 in [1] of 6.89. The values for the MIC in assay [2], in assay [3] and in [4] were 0.5 µg/mL (≈ 1.19 µM), 0.06 µg/mL (≈ 0.142 µM) and 2 µg/mL (≈ 4.75 µM), respectively. Besides, the Ratio in assay [5] was determined as 2.
For `O=C(NO)[C@@H]1CN(c2ccc(C#CC#CC3CC3)c(F)c2)C(=O)O1`, the outcome in assay [6], in assay [7], in [8] and in [9] was inactive. The molecule further gave a negative-log IC50 (pIC50) in [1] of 8.22. The minimal inhibitory concentration (MIC) in assay [2] was 0.016 µg/mL (≈ 0.0487 µM); in assay [3] it was 0.004 µg/mL (≈ 0.0122 µM); in assay [4], 0.063 µg/mL (≈ 0.192 µM). Further, the Ratio in assay [5] worked out at 2.
